Positions of bridges follow the written chain, without caps; N, C: chain ends. Non-standard residues stand in square brackets, D forms with d. No end group written: not given here. Hyp = O=C(O)[C@@H]1C[C@@H](O)CN1
B1: nemertide α-1 (peptide)
peptide: GCIATGSFCTLSKGCCTKNCGWNFKCN[Hyp][Hyp]NQK
modifications: disulfide 15-26, 2-16, 9-20

Tests used:
BgNaV1 = conditions: cited from earlier work
Description: (§1) The α-1 induced alterations of gating kinetics resemble the effects of other peptide toxins known to be binding to the so-called neurotoxin binding site 3[18],[19]. Such toxins trap the voltage-sensing segment S4 of domain 4 in its inward or dea ...

DmNaV1 = conditions: cited from earlier work
Description: as §1

[1] = target: Blattella germanica voltage-gated sodium channel BgNaV1 (Blattella germanica) (UniProt O01307)
[2] = target: voltage-gated sodium channel NaV1.6 (not stated (mNaV1.6 in the methods, human in the results)) (UniProt Q9WTU3)

Molecule	inhibition of inactivation (BgNaV1)	inhibition of inactivation (DmNaV1)	two-electrode voltage clamp on oocytes: concentration-response curve of the toxin-induced modulation of BgNaV1 currents, EC50 [1]	two-electrode voltage clamp on oocytes: concentration-response curve on NaV1.6, EC50 (Figure S4C) [2]
ATX-II: sea anemone toxin	complete inhibition of the inactivation	complete inhibition of the inactivation		
anthopleurin A: sea anemone toxin	complete inhibition of the inactivation	complete inhibition of the inactivation		
B1			8.6 nM	800 nM
